According to US20140005216A1, “Nalmefene for reduction of alcohol consumption in specific target populations” (H. Lundbeck A/S, priority 2012, published 2014):
“Also recorded” adds a separate entry of the source.

How the values were obtained:
[1] = test system: patients with alcohol dependence; experiment: Study 12014A: randomised, double blind, placebo controlled 6 month efficacy study, reduction of alcohol consumption; type: in vivo, human; settings: nalmefene 18 mg as-needed, MMRM
Procedure: (§1) The efficacy of nalmefene on the reduction of alcohol consumption in patients with alcohol dependence (DSM-IV) was evaluated in two efficacy studies (Study 12014A and Study 12023A). Both studies were randomised, double blind, two-parallel group, placebo controlled, and after 6 months of treatment, patients receiving nalmefene were re-randomised to receive either placebo or nalmefene in a 1 month run out period. The efficacy of nalmefene was also evaluated in a randomised, double blind, two parallel group, placebo controlled 1 year safety study (Study 12013A). The studies included 1941 patients, 1144 of whom were treated with nalmefene 18 mg in an as-needed dosing regimen.
(§2) The studies were conducted applying an outpatient setting without preceding detoxification. Higher CIWA withdrawal scores at Screening as well as a history of delirium tremens and seizures would be indicative for the necessity of prior inpatient detoxification. Patients with abuse of substance other than alcohol and subjects with significant depressive or psychotic co-morbidity were excluded.
(§3) The studies included outpatients, aged ≧18 years, with a primary diagnosis of alcohol dependence. A patient was eligible for participation in the study if, in the 4 weeks preceding the Screening Visit (Baseline period), he/she had >6 HDDs, at least a medium DRL (calculated as mean daily alcohol consumption in g/day i.e. >40 g/day for men and >20 g/day for women calculated as mean daily alcohol consumption over the 4 week period preceding the screening visit), and ≦14 consecutive abstinent days. The timeline followback (TLFB) method was used to obtain estimates of the patient's daily drinking.
(§4) The studies were conducted over a 34 week period (12 visits) in total and consisted of four sequential periods: a 2-week screening period, a 24-week double-blind treatment period, a 4-week double-blind placebo-controlled run-out in each of the treatment arms and finally a 4-week safety follow-up. One to two weeks after the Screening Visit the patients were randomised 1:1 to 24 weeks of as-needed, double-blind treatment (Main Treatment Period: MTP) with nalmefene (18 mg) or placebo. The patients who completed 24 weeks of double-blind treatment entered a 4-week, double-blind Run-out Period (ROP). The patients randomised to nalmefene were re-randomised 1:1 to receive nalmefene (18 mg, as-needed) or placebo and the patients randomised to placebo continued on placebo.
(§5) The Timeline Follow-back (TLFB) method was used to collect self-reported drinking data (alcohol consumption).
(§6) At the initial visit, the patients' clinical status, social situation, and alcohol consumption pattern were evaluated (based on patient reporting). After a 1- to 2-week observation period the drinking risk level was re-assessed (i.e. the […] daily alcohol consumption over the 1-2 week assessment period was calculated), and treatment with nalmefene was initiated together with counseling with focus on motivating the patients to adhere to the treatment and to change their drinking behavior. In all the studies, a motivational and adherence enhancing intervention, according to the BRENDA model, was administered to all the patients to support the patients in changing their behavior and to enhance adherence to treatment.
(§7) The patients' alcohol intake (g/day) was estimated based on national definitions of standard units (subsequently converted into grams of alcohol). To define the standard units, a standard drink conversion card was distributed to each patient at the Screening Visit. Each patient was also provided with a calendar that he/she could use to support his/her input to the TLFB, or he/she could use a personal calendar, if preferred. For all the variables derived from the TLFB data, baseline was defined as the month (that is 4 weeks/28 consecutive days) preceding the Screening Visit. The investigational medicinal product (IMP) was taken as-needed. […]

[2] = test system: patients with alcohol dependence; experiment: Study 12023A: randomised, double blind, placebo controlled 6 month efficacy study, reduction of alcohol consumption; type: in vivo, human; settings: nalmefene 18 mg as-needed, MMRM
Procedure: as §1, §2, §3, §4, §5, §6, §7

[3] = test system: patients with alcohol dependence; experiment: Study 12013A: randomised, double blind, placebo controlled 1 year safety study, reduction of alcohol consumption; type: in vivo, human; settings: nalmefene 18 mg as-needed, MMRM
Procedure: as §1, §2, §3, §5, §6
The patients' alcohol intake (g/day) was estimated based on national definitions of standard units (subsequently converted into grams of alcohol). To define the standard units, a standard drink conversion card was distributed to each patient at the Screening Visit. Each patient was also provided with a calendar that he/she could use to support his/her input to the TLFB, or he/she could use a personal calendar, if preferred. For all the variables derived from the TLFB data, baseline was defined as the month (that is 4 weeks/28 consecutive days) preceding the Screening Visit. The investigational medicinal product (IMP) was taken as-needed. Each patient was instructed to take a maximum of one tablet on each day the patient perceived a risk of drinking alcohol, preferably 1 to 2 hours prior to the anticipated time of drinking. If the patient had started drinking alcohol without taking nalmefene, the patient was to take one tablet as soon as possible. The dates when nalmefene was taken/not taken were recorded using the TLFB method. The chosen comparator was placebo
The efficacy of nalmefene was measured using two co-primary endpoints: the change in the monthly number of heavy drinking days (HDDs) and the change in the mean daily total alcohol consumption (TAC) per month (=28 days). A HDD was defined as a day with a consumption ≧60 g alcohol for men and ≧40 g for women. […]

[4] = test system: patients with alcohol dependence; experiment: Three Lundbeck phase III studies (12014A, 12023A, 12013A) taken together, HDDs and TAC versus placebo; type: in vivo, human; settings: for Effect on HDDs and TAC compared to placebo, relative to the total population: all three studies
Excerpt: The efficacy of nalmefene in the reduction of alcohol consumption in patients with alcohol dependence (DSM-IV) has been evaluated in two efficacy studies (Study 12014A and Study 12023A) and one safety study (Study 12013A) as described in the examples. All three studies were randomized, double blind, parallel-group and placebo-controlled.
The studies included outpatients, aged […], with a primary diagnosis of alcohol dependence. A patient was eligible for participation in the study if, in the 4 weeks preceding the Screening Visit (Baseline period), he/she had >6 HDDs, at least a medium DRL (calculated as mean daily alcohol consumption in g/day i.e. >40 g/day for men and >20 g/day for women calculated as mean daily alcohol consumption over the 4 week period preceding the screening visit), and ≦14 consecutive abstinent days. The timeline followback (TLFB) method was used to obtain estimates of the patient's daily drinking.
At the initial visit (screening visit), the patients' clinical status, social situation, and alcohol consumption pattern were evaluated. After a 1- to 2-week observation period the drinking risk level was re-assessed by calculating mean daily alcohol consumption in g/day over the 1- to 2-week observation period, and treatment with nalmefene was initiated together with counseling with focus on motivating the patients to adhere to the treatment and to change their drinking behavior.
The efficacy of nalmefene was measured using two co-primary endpoints: the change in the monthly number of heavy drinking days (HDDs) and the change in the mean daily total alcohol consumption (TAC) per month (=28 days).
The efficacy of nalmefene on the reduction of alcohol consumption in patients with alcohol dependence (DSM-IV) was evaluated in two efficacy studies (Study 12014A and Study 12023A). […] The efficacy of nalmefene was also evaluated in a randomised, double blind, two parallel group, placebo controlled 1 year safety study (Study 12013A). […]
The studies included outpatients, aged ≧18 years, with a primary diagnosis of alcohol dependence. A patient was eligible for participation in the study if, in the 4 weeks preceding the Screening Visit (Baseline period), he/she had >6 HDDs, at least a medium DRL (calculated as mean daily alcohol consumption in g/day i.e. >40 g/day for men and >20 g/day for women calculated as mean daily alcohol consumption over the 4 week period preceding the screening visit), and ≦14 consecutive abstinent days. […]
At the initial visit, the patients' clinical status, social situation, and alcohol consumption pattern were evaluated (based on patient reporting). […]

alcohol dependence [5] = settings: 20 to 80 mg daily oral dosing; Mason et al. 1999; cited from earlier work
alcohol dependence [6] = settings: 5, 20 and 40 mg daily doses; Anton et al. 2004; cited from earlier work
alcohol dependence [7] = settings: 20 mg taken when the patient experienced a craving for alcohol; Karhuvaara et al. 2007; cited from earlier work
[8] = High DRL at baseline & randomisation

C=C1CC[C@@]2(O)[C@H]3Cc4ccc(O)c5c4[C@@]2(CCN3CC2CC2)[C@H]1O5 [nalmefene, 17-(cyclopropylmethyl)-4,5-alpha-epoxy-6-methylenemorphinan-3,14-dial]
Mean difference to placebo in the change from baseline to month 6, HDD [1, 8]: −3.7 days/month | Mean difference to placebo in the change from baseline to month 6, TAC [1, 8]: -18.3 g/day | Mean difference to placebo in the change from baseline to month 6, HDD ([1]; High DRL at baseline): −2.6 days/month | Mean difference to placebo in the change from baseline to month 6, TAC ([1]; High DRL at baseline): -12.2 g/day | Mean difference to placebo in the change from baseline to month 6, HDD ([1]; Total excl. ERs): −3.1 days/month | Mean difference to placebo in the change from baseline to month 6, TAC ([1]; Total excl. ERs): -14.5 g/day | Mean difference to placebo in the change from baseline to month 6, HDD ([1]; Total population): −2.3 days/month | Mean difference to placebo in the change from baseline to month 6, TAC ([1]; Total population): -11.0 g/day | Mean difference to placebo in the change from baseline to month 6, HDD [2, 8]: −2.7 days/month | Mean difference to placebo in the change from baseline to month 6, TAC [2, 8]: -10.3 g/day | Mean difference to placebo in the change from baseline to month 6, HDD ([2]; High DRL at baseline): −2.1 days/month | Mean difference to placebo in the change from baseline to month 6, TAC ([2]; High DRL at baseline): -6.6 g/day | Mean difference to placebo in the change from baseline to month 6, HDD ([2]; Total excl. ERs): −2.0 days/month | Mean difference to placebo in the change from baseline to month 6, TAC ([2]; Total excl. ERs): -7.0 g/day | Mean difference to placebo in the change from baseline to month 6, HDD ([2]; Total population): −1.7 days/month | Mean difference to placebo in the change from baseline to month 6, TAC ([2]; Total population): -5.0 g/day | Mean difference to placebo in the change from baseline to month 6, HDD [3, 8]: −2.6 days/month | Mean difference to placebo in the change from baseline to month 6, TAC [3, 8]: -15.3 g/day | Mean difference to placebo in the change from baseline to month 6, HDD ([3]; High DRL at baseline): −1.1 days/month | Mean difference to placebo in the change from baseline to month 6, TAC ([3]; High DRL at baseline): -5.6 g/day | Mean difference to placebo in the change from baseline to month 6, HDD ([3]; Total excl. ERs): −1.4 days/month | Mean difference to placebo in the change from baseline to month 6, TAC ([3]; Total excl. ERs): -7.9 g/day | Mean difference to placebo in the change from baseline to month 6, HDD ([3]; Total population): −0.9 days/month | Mean difference to placebo in the change from baseline to month 6, TAC ([3]; Total population): -3.5 g/day | Reducing the number of HDDs and TAC versus placebo ([4]; month 6, total study population, two 6 month efficacy studies and 12 month safety study): superior to placebo | Effect on HDDs and TAC compared to placebo, relative to the total population ([4]; patients that were not ERs (total excluding Early Reducers)): more pronounced | Effect on HDDs and TAC compared to placebo, relative to the total population ([4]; patients with a high DRL at baseline): more pronounced | Effect on HDDs and TAC compared to placebo, relative to the total population ([4]; patients with a high DRL both at baseline and at randomisation): more pronounced; also recorded: even further pronounced | Effect in the management of alcohol dependence (alcohol dependence [5]): good effect | Superiority over placebo in the management of alcohol dependence (alcohol dependence [6]): no evidence of superiority of nalmefene over placebo | Effect over placebo in the management of alcohol dependence (alcohol dependence [7]): good effect of nalmefene over placebo
